Experimental findings from PubChem BioAssay (NCI) are described below.

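How tested: cells in 96-well plates exposed to compound for 48 hours at five concentrations. TGI: total growth inhibition.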

Common to all, as to experiment: NCI anticancer screen, dose series, 48 h
Test [1] has as its system CCRF-CEM leukemia.
For test [2], the system named is COLO 205 colon.
Test [3] relates to DU-145 prostate.
For test [4], the system named is HT29 colon.
Test [5] has as its system KM12 colon.
The subject of test [6] is MDA-MB-231 breast.
The subject of test [7] is RPMI-8226 leukemia.
Test [8] relates to SK-MEL-2 melanoma.
Test [9] deals with SNB-75 CNS.
The subject of test [10] is SW-620 colon.

On to `CCOC(=O)CC[C@H](N)C(=O)N[C@H](Cc1ccc(N(CCCl)CCCl)cc1)C(=O)OCC`, for which the TGI in test [1] was above 100 µM; in test [2], 4.26 µM; in test [3] it was 3.77 µM; in test [4] it was 13.3 µM; in [5], 15.9 µM; in test [6], 16.2 µM. The TGI is above 73.9 µM in test [7], above 28.4 µM in [8], 5.89 µM in [9] and 14.1 µM in [10].
On to `CCOP(=O)(OCC)C(C)(C)OC(=O)NC#N`, for which the TGI in test [1], in test [2], in [3], in test [4], in test [5] and in [6] was above 100 µM in each case. Also, the TGI in test [7], in test [8], in test [9] and in [10] was above 100 µM throughout.
Take `O=[N+]([O-])c1cc(Cl)ccc1S(=O)(=O)N1CCCc2cc(Cl)ccc21`: the TGI in [1], in test [2], in test [3], in test [4], in [5] and in [6] was above 100 µM throughout. Besides, the TGI in [7], in test [8], in test [9] and in [10] was above 100 µM in each case.
Turning to `C=CC1(c2ccc(OC)cc2)OCCCO1`, the TGI in test [1], in test [2], in [3], in test [4], in [5] and in test [6] was above 100 µM throughout. Further, the TGI in test [7], in [8], in test [9] and in test [10] was above 100 µM each time.
Regarding `CC(=O)N(CN1C(=O)CCC1C(=O)O)c1ccccc1Cl` (configuration not stated), the TGI in test [1], in test [2], in [3], in [4], in test [5] and in [6] was above 100 µM in each case. Also, the TGI in test [7], in [8], in test [9] and in [10] was above 100 µM in each case.
On to `COc1ccc(C[C@@H]2OC3(C=CC(=O)C=C3)O[C@H]2Cc2ccc(OC)cc2)cc1`, for which the TGI came out at 0.521 µM in [1]; 2.79 µM in test [2]; 5.32 µM in test [3]; 2.18 µM in test [4]; 5.04 µM in [5]; 4.15 µM in test [6]. Further, the TGI in [7] stood at 0.653 µM; in test [8], 3.41 µM; in test [9], 3.04 µM; in [10], 0.383 µM.
With `Cc1ncc([N+](=O)[O-])n1CCNC(=O)CCCCCn1ccnc1[N+](=O)[O-]`, the TGI in test [1], in test [2], in test [3], in [4], in test [5] and in [6] was above 100 µM throughout. Moreover, the TGI in [8], in test [9] and in test [10] was above 100 µM throughout.
As for `C#CCCCC(=O)N(C(=O)CS(=O)CC)c1ccccc1` (configuration not stated), the TGI in test [1], in test [2], in test [3], in [4], in [5] and in test [6] was above 100 µM in each case. Moreover, the TGI in test [8], in test [9] and in test [10] was above 100 µM throughout.
Consider `CN(C)CCNc1nc2c(no[n+]2[O-])c2ccccc12`, for which the TGI in [1] is above 100 µM; in test [2] it was 66.7 µM; in test [3], above 100 µM; in [4] it was above 100 µM; in [5] it was 58.9 µM; in test [6] it was 34.3 µM. For the same compound, the TGI is above 100 µM in test [7], 40.4 µM in test [8], 52.4 µM in test [9] and 46 µM in test [10].
For `C=C1c2nc3ccccc3n2C=C(c2ccc(OC)cc2)N1c1ccc(OCCN2CCOCC2)cc1`, the TGI was above 86.9 µM in test [1]; above 57 µM in test [2]; above 100 µM in test [3]; above 100 µM in [4]; above 100 µM in test [5]; above 100 µM in test [6]. The TGI in [7] was 9.05 µM; in [8], above 52.2 µM; in test [9] it was above 100 µM; in test [10] it was above 100 µM.
With `CC1CN=C(c2ccc(COc3ccc(C4=NCC(C)N4)cc3)cc2)N1` (configuration not stated), the TGI in [1], in [2], in test [3], in test [4], in [5] and in test [6] was above 100 µM each time. Besides, the TGI in test [7] is above 100 µM; in test [8] it was 58.4 µM; in [9], 64.4 µM; in test [10] it was above 100 µM.
Turning to `CC1(C)CC2C(C1=O)C1(C)CCCC2(C)C1=O` (configuration not stated), the TGI in test [1], in test [2], in test [3], in test [4], in test [5] and in [6] was above 100 µM in each case. Also, the TGI in test [7], in test [8], in test [9] and in test [10] was above 100 µM each time.
With `O=S(=O)(/N=C(\NO)Nc1ccc(Cl)cc1)c1ccc(-c2ccccn2)s1`, the TGI in [1], in test [2], in test [3], in test [4], in [5] and in test [6] was above 100 µM throughout. Also, the TGI in test [8], in test [9] and in test [10] was above 100 µM in each case.
As to `CCN(CC)CCC(=O)c1ccc(Oc2ccc(F)cc2)cc1`, the TGI in [1] was found to be 50.1 µM; in [2], 33.7 µM; in [3], 53.1 µM; in test [4], 38.6 µM; in test [5], 36.6 µM; in [6] it was 31.2 µM. Besides, the TGI in [7] is 56.4 µM; in test [8], above 100 µM; in [9], 47.8 µM; in test [10], 32.7 µM.
